# Source: patent US20210052741A1, “GENE THERAPY METHODS AND COMPOSITIONS USING AUXOTROPHIC REGULATABLE CELLS” (AUXOLYTIC LTD, priority 2018, published 2021)
# Where “and” joins values, the source holds several entries; their conditions need not be identical. Identical values can stand only once.
# What was measured:
# Mock T cells = experiment: 5-FOA selection, cell counts after 4 days; type: cell-based, human; settings: for Average of cells per volume unit / Average number of cells per volume unit: Mock; for Average of cells per volume unit: 4 days in 5-FOA without serum; for Average number of cells per volume unit: 4 days in 5-FOA
# Experimental: (§1) 5-FOA selects for uracil auxotrophic cells in other organisms (e.g. Boeke et al. 1984, Mol. Gen. Genet. 197(2):345-6), which is hereby incorporated by reference in its entirety). To investigate the potential utility of 5-FOA for the selection of uracil auxotrophs among human cells, the UMPS gene was targeted in human T cells by Cas9-gRNA complex electroporation followed by recovery (as shown in Example 2) followed by an assay of resistance to 5-FOA treatment (FIG. 3A). Cells were grown in 5-FOA and a variety of combinations of serum and uracil sources for 4 days before cell counting was performed.
# UMPS-7 targeted T cells = experiment: 5-FOA selection, cell counts after 4 days; type: cell-based, human; settings: for Average of cells per volume unit: UMPS-7, 4 days in 5-FOA without serum; for Average number of cells per volume unit: UMPS-7, 4 days in 5-FOA
# Experimental: as §1
# UMPS KO T cells = experiment: Auxotrophy assay in sorted T cells; type: cell-based, human; settings: for Relative viability on Day 4 (%) / Viable cells per ml: UMPS KO
# Experimental: (§2) These T cells were also subjected to an auxotrophy assay and the possibility to select these cells with 5-FOA was tested. […] Higher Uridine concentrations led to higher proliferation rates. Auxotrophic growth of UMPS KO or wild-type (WT) T cells is shown in FIG. 7B and Table 28.
# WT T cells = experiment: Auxotrophy assay in sorted T cells; type: cell-based, human; settings: for Viable cells per ml: Anti-CD3/-CD28 beads
# Experimental: as §2
# [1] = oral; cited from earlier work
# UMPS knockout T cells = experiment: Cell counts after recovery post-electroporation; type: cell-based, human; settings: 4 days recovery post electroporation, no serum, with 5-FOA
# Experimental: (§3) K562 cells (acquired from ATCC) and Nalm6 cells (kindly provided by C. Mackall) were cultured in RPMI 1640 (HyClone) supplemented with 10% bovine growth serum, 2 mM L-glutamine and 100 U/ml Penicillin and 100 U/ml Streptomycin. T cells were either used fresh after isolation from buffy coats obtained from healthy donors. T cells were isolated through a Ficoll density gradient centrifugation followed by magnetic enrichment using the Pan T Cell Isolation Kit (Miltenyi Biotec).
# (§4) Cells were cryopreserved in BAMBANKER™ medium. After thawing cells were cultured at 37° C., 5% CO2 in X-Vivo 15 (Lonza) supplemented with or without 5% human serum (Sigma-Aldrich) and […] recombinant IL-2 (Peprotech) and 10 ng/ml human recombinant IL-7 (BD Biosciences). […]
# (§5) Genomic DNA was harvested using QUICKEXTRACT™ DNA Extraction Kit (Epicentre). Cells were counted on an automated cell counter using Trypan blue staining or on a CytoFLEX flow cytometer (Beckman Coulter) with automatic plate reader using COUNTBRIGHT™ beads (ThermoFisher) as a reference for normalizing the values. Alternatively, cells were analyzed after staining with fluorochrome-labelled antibodies (Biolegend) on an ACCURI™ C6 flow cytometer (BD Biosciences), which also measures volumes, or a FACS ARIA™ II SORP cell sorter (BD Biosciences). Data was analyzed using Excel (Microsoft) and FlowJo software (Tree Star). […]
# mock edited T cells = experiment: Cell counts after recovery post-electroporation; type: cell-based, human; settings: 4 days recovery post electroporation, no serum, with 5-FOA
# Experimental: as §3, §4, §5
# GFP+ UMPS^KO/KO hESCs = experiment: 5-FOA resistance in hESC co-culture (FACS); type: cell-based, human; settings: for Viable cell counts, GFP+: co-culture
# Description: (§6) To assess resistance to 5-FOA, the UMPS-KO hESCs were genetically engineered to express GFP from an expression cassette integrated into a safe-harbor locus for easier identification in co-culture with UMPS-WT cells.
# (§7) These UMPS^KO/KO hESCs were mixed with UMPS^WT/WT cells that were not expressing GFP and followed up by fluorescence-activated cell sorting (FACS) analysis in the presence of different concentrations of 5-FOA. Table 16 provides counts of viable GFP+ and GFP− cells after culture with different 5-FOA concentrations.
# GFP- UMPS^WT/WT hESCs = experiment: 5-FOA resistance in hESC co-culture (FACS); type: cell-based, human; settings: for Viable cell counts, GFP−: co-culture
# Description: as §6, §7
smiles,measurement,setting,value
O=c1ccn([C@@H]2O[C@H](CO)[C@@H](O)[C@H]2O)c(=O)[nH]1 [Uridine],Average of cells per volume unit,Mock T cells; with substrate,53052.43 cells per volume unit
same,survival in 5-FOA compared to control,Mock T cells; mock treated cells,improved the survival
same,survival in 5-FOA compared to control,UMPS-7 targeted T cells; UMPS targeted cells,improved the survival
same,Average of cells per volume unit,UMPS-7 targeted T cells; with substrate,77755.72 cells per volume unit
same,proliferation,"UMPS KO T cells; Anti-CD3/-CD28 beads, different Uridine concentrations",proliferated only in the presence of Uridine
same,Relative viability on Day 4 (%),UMPS KO T cells; 2.5 μg/ml Uridine,78.78 and 79.28 and 79.74
same,Viable cells per ml,"UMPS KO T cells; 2.5 μg/ml uridine, Anti-CD3/-CD28 beads",226596 cells per ml and 217594 cells per ml and 224448 cells per ml
same,Relative viability on Day 4 (%),UMPS KO T cells; 25 μg/ml Uridine,82.16 and 81.57 and 83.09
same,Viable cells per ml,"UMPS KO T cells; 25 μg/ml uridine, Anti-CD3/-CD28 beads",282368 cells per ml and 268684 cells per ml and 304864 cells per ml
same,Relative viability on Day 4 (%),UMPS KO T cells; 250 μg/ml Uridine,85.66 and 85.29 and 84.38
same,Viable cells per ml,"UMPS KO T cells; 250 μg/ml uridine, Anti-CD3/-CD28 beads",319120 cells per ml and 345862 cells per ml and 348022 cells per ml
same,Relative viability of the cell population on Day 4,WT T cells; 2.5 μg/ml Uridine,84.64 and 82.19 and 80.45
same,Viable cells per ml,WT T cells; 2.5 μg/ml uridine,486192 cells per ml and 362626 cells per ml and 364194 cells per ml
same,Relative viability of the cell population on Day 4,WT T cells; 25 μg/ml Uridine,83.91 and 83.40 and 79.66
same,Viable cells per ml,WT T cells; 25 μg/ml uridine,384503 cells per ml and 410116 cells per ml and 338547 cells per ml
same,Relative viability of the cell population on Day 4,WT T cells; 250 μg/ml Uridine,86.05 and 86.97 and 87.62
same,Viable cells per ml,WT T cells; 250 μg/ml uridine,609575 cells per ml and 412493 cells per ml and 468354 cells per ml
same,absorption and breakdown,[1],poorly absorbed in the gastrointestinal tract and broken down in the liver
"O=C(O)c1[nH]c(=O)[nH]c(=O)c1F [5-FOA, 5-fluoroorotic acid]",Intact cells (absolute),UMPS knockout T cells,395
same,Intact cells (absolute),mock edited T cells,580
same,Average of cells per volume unit,Mock T cells; No UMP/Uridine,12279.07 cells per volume unit and 16467.39 cells per volume unit
same,Average number of cells per volume unit,"Mock T cells; No Serum, No UMP/Uridine",13947.04 cells per volume unit
same,Average number of cells per volume unit,"Mock T cells; With Serum, No UMP/Uridine",13403.28 cells per volume unit
same,Average of cells per volume unit,UMPS-7 targeted T cells; No UMP/Uridine,52156.98 cells per volume unit and 67438.73 cells per volume unit
same,Average number of cells per volume unit,"UMPS-7 targeted T cells; No Serum, No UMP/Uridine",56895.21 cells per volume unit
same,Average number of cells per volume unit,"UMPS-7 targeted T cells; With Serum, No UMP/Uridine",54282.95 cells per volume unit
same,tolerance of UMPS-KO cells to 5-FOA,GFP+ UMPS^KO/KO hESCs; 0.25 μg/ml,tolerated the concentration of 0.25 μg/ml well
same,"Viable cell counts, GFP+",GFP+ UMPS^KO/KO hESCs; 5-FOA 0.25 μg/ml,142820
same,"Viable cell counts, GFP+",GFP+ UMPS^KO/KO hESCs; 5-FOA 2.5 μg/ml,11812.5
same,"Viable cell counts, GFP+",GFP+ UMPS^KO/KO hESCs; 5-FOA 25 μg/ml,8455.98
same,proliferation of UMPS-KO cells in 5-FOA,GFP+ UMPS^KO/KO hESCs; concentrations above 0.25 μg/ml,impaired proliferation at higher concentrations
same,cells GFP+,GFP+ UMPS^KO/KO hESCs; groups with 5-FOA (54.8% without 5-FOA),95.0%
same,sensitivity of UMPS-WT cells to 5-FOA,GFP- UMPS^WT/WT hESCs; all tested concentrations (0.25-25 μg/ml),sensitive to all tested 5-FOA concentrations
same,"Viable cell counts, GFP−",GFP- UMPS^WT/WT hESCs; 5-FOA 0.25 μg/ml,5180
same,"Viable cell counts, GFP−",GFP- UMPS^WT/WT hESCs; 5-FOA 2.5 μg/ml,687.5
same,"Viable cell counts, GFP−",GFP- UMPS^WT/WT hESCs; 5-FOA 25 μg/ml,334.02
